Inhibition data for 49 compounds are collected here from patent US12637468B2, “Substituted [1,2,4]triazolo[4,3-b]pyridazines as GABAA receptor modulators” (SHANGHAI SIMR BIOTECHNOLOGY CO., LTD., priority 2019, dated 2026).

For the assay, the target named is T1, α5-GABAA receptor (Homo sapiens, UniProt P18507+P31644).
T1 construct: expressed in transfected cells; host or cells: HEK293, monoclonal stably transfected line
T1 sequence (P31644 32-462): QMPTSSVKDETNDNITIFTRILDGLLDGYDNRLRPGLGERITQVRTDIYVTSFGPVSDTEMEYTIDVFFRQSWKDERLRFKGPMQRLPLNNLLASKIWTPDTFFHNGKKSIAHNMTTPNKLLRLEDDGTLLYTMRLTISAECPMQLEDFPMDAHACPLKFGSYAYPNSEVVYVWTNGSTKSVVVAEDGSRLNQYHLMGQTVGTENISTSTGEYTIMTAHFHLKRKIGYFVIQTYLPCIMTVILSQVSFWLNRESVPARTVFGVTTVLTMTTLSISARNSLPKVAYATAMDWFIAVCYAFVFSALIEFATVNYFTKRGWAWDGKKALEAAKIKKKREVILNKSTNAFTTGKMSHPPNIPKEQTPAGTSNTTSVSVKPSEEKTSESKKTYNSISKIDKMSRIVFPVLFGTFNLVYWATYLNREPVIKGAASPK
T1 sequence (P28472 26-473 partner): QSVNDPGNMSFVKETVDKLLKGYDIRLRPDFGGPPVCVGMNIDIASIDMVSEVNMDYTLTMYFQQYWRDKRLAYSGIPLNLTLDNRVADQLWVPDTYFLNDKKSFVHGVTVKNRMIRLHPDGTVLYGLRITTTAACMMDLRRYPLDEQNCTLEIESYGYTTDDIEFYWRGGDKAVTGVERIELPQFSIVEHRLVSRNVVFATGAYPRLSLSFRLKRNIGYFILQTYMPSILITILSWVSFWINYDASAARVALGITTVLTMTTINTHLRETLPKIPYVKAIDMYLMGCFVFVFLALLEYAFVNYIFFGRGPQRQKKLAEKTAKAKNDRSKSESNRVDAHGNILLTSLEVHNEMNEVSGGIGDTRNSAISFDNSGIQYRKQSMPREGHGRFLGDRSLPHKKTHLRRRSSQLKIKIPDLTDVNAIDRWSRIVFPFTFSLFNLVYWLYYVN
T1 sequence (P18507 40-467 isoform P18507-1 limits assumed): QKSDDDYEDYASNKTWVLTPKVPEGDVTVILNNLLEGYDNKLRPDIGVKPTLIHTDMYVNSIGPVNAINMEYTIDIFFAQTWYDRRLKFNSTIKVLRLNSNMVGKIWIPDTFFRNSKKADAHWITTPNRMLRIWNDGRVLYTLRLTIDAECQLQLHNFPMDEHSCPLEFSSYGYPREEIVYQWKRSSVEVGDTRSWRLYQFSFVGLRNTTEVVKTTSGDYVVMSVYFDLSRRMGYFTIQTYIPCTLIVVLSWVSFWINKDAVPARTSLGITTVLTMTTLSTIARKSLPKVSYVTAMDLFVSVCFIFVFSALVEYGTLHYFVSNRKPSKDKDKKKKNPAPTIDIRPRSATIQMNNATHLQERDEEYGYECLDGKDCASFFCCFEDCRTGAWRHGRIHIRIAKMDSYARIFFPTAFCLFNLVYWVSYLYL
The assay is described as follows: Cell-level screening: whole cell patch clamp, inverse agonist efficacy on α5-GABAA receptor expressed in HEK293. Particulars: drug 100 nM, GABA 0.05 μM, HEK293 expressing α5, β3 and γ2 subunits, clamped at −60 mV; read-out: Compound inverse agonist efficacy %. Type of assay: cell-based. The method, then: The inventors used electrophysiological methods to determine the inverse agonist efficacy of the drugs to be tested on the α5-GABAA receptor. The detailed methods are as follows:
Different subunits of GABAA receptors were expressed in human […] cell line 293 (HEK293) cell line. The cells were cultured in a culture medium and used as a cell model for screening pain inhibiting drugs. The α, β and γ subunits are necessary to form complete functional GABAA receptors. In this embodiment, the inventors had established the following cell model: α5 subunit (see GenBank Accession No. NM_000810.3 for protein sequences), β3 subunit (see GenBank Accession No. NM_000814.5 for protein sequences) and γ2 subunit (see GenBank Accession No. NM_000816.3 for protein sequences) were expressed in HEK293 cell line at the same time, followed by screening the monoclonal cell line. This cell line contained α5-GABAA receptor and had complete GABAA receptor function.
The monoclonal stably transfected HEK-293 cells expressing α5-GABAA receptor were cultured in 10 cm culture dishes and passaged when the cells grew to 80%-90%. During passaging, the culture medium was aspirated first, then 3 mL of DPBS phosphate buffer salt (Gibco™) was added to the culture dishes, and the culture dishes were shaken slightly, and DPBS was aspirated. 1 mL of trypsin (TrypLE Express, Gibco™) was added thereto, and the cells were digested at 37° C. for 1-2 minutes. Then 3 mL of complete medium (DMEM+10% FBS (Gibco™)) was added and the cells at the bottom of the culture dishes were dispersed. The cell suspension were transferred to a 15 mL centrifugal tube (Corning) and then centrifuged at 200 g for 3 minutes. The supernatant was discarded, 4 mL of complete medium was added, and the cells were gently blown and resuspended for use. If cell passaging was performed, the cell suspension was diluted at a ratio of 1:5 or 1:10. If cells for electrophysiology use were prepared, the cell suspension was diluted in a ratio of 1:12, then added into a 24-well dish (Corning™) in which glass slides were placed and pretreated with Poly-D-Lysine, and the cells were tested after being attached to the walls. The culture time of cells for electrophysiology use was no more than 48 hours.
Drug concentration setting: the final drug concentration used in drug screening was 100 nM, and the GABA concentration range was 0.05 μM. The final drug concentrations used in the dose-inversal agonistic efficiency (%) test were 0.3 nM, 3 nM, 10 nM, 30 nM, 100 nM and 300 nM. The whole cell patch clamp technique was used in electrophysiological experiments, which could refer to the literature (I. Lecker, Y. Yin, D. S. Wang and B. A. Orser, (2013) Potentiation of GABAA receptor activity by volatile anaesthetics is reduced by α5-GABAA receptor-preferring inverse agonists, British Journal of Anaesthesia 110 (S1): i73-i81). The components of extracellular solution (ECS) for electrophysiology use were as follows: 150 mM NaCl, 5 mM KCl, 2.5 mM CaCl2), 1 mM MgCl2, 10 mM HEPES and 10 mM glucose (pH 7.4); electrode internal solutions for electrophysiology use were as follows: 140 mM CsCl, 11 mM EGTA, 10 mM HEPES, 2 mM CaCl2), 1 mM MgCl2, 4 mM MgATP, 2 mM TEA (pH 7.3). The signal acquisition used an EPC-10 amplifier and the PatchMaster software (HEKA). The recording electrode was drawn using borosilicate glass, and the electrode resistance was 4 to 6 MΩ. The ALA-VC3-8PP™ system was used for extracellular administration. Separate cells that grew independently was selected for recording. During recording, the cell membrane potential was clamped at −60 mV. During experiment, an extracellular solution was applied to the cells for about 20 seconds. When the baseline reached to a stable state, the extracellular solution was switched to GABA. Then the current induced by GABA could be detected. […]
For the compound `COc1cc2nnc(-c3cc(CO)on3)n2nc1OCc1ccccn1` [Embodiment 46, (3-(7-Methoxy-6-(pyridin-2-ylmethoxy)-[1,2,4]triazolo[4,3-b]pyridazin-3-yl]isoxazol-5-yl)methanol], the inhibition at 0.1 µM came to 48.7%.
For the compound `COc1cc2nnc(-c3cc(C)on3)n2nc1OCc1ccc2c(n1)CN(C1CCOC1)C2` (stereo not shown) [Embodiment 254], the inhibition at 0.1 µM amounted to 39%.
Then `COc1cc2nnc(-c3cc(C)on3)n2nc1OCc1ccc2c(n1)NCCO2` [Embodiment 119], with 35.9%; and `CCn1cnc2ccc(COc3nn4c(-c5cc(C)on5)nnc4cc3OC)nc21` [Embodiment 249], with 51.2%; and `COc1cc2nnc(-c3cc(C)on3)n2nc1OCc1cccc(N2CCOCC2)n1` [Embodiment 2], with 26.6%.
For `COc1cc2nnc(-c3cc(C)on3)n2nc1OCc1ccc(C2(F)CNC2)cn1` [Embodiment 71], the inhibition at 0.1 µM turned out to be 40.7%.
In the case of `COCCCOc1ccc(COc2nn3c(-c4cc(C)on4)nnc3cc2OC)nn1` [Embodiment 15], the inhibition at 0.1 µM came to 45.8%.
Then `COc1ccnc(COc2nn3c(-c4cc(C)on4)nnc3cc2OC)c1` [Embodiment 51], with 46.2%.
Then `COc1cc2nnc(-c3cc(C)on3)n2nc1OCc1cc2c(cn1)OCCO2` [Embodiment 121], with 37.4%.
For the compound `COc1cc2nnc(-c3cc(C)on3)n2nc1OCc1ccc2c(n1)CN(CCCC#N)C2` [Embodiment 257], the inhibition at 0.1 µM came out at 50%.
For the compound `COc1cc2nnc(-c3cc(C)on3)n2nc1OCc1ccc2c(cnn2CCC#N)n1` [Embodiment 228], the inhibition at 0.1 µM turned out to be 44.7%.
As to `COc1cc2nnc(-c3cc(C)on3)n2nc1OCc1ccc2c(ncn2C2CCOCC2)n1` [Embodiment 248], the inhibition at 0.1 µM came out at 31.4%.
Regarding `COCC(C)(C)N1CCc2nc(COc3nn4c(-c5cc(C)on5)nnc4cc3OC)ccc2C1` [Embodiment 190], the inhibition at 0.1 µM was 38.3%.
Then `COc1cc2nnc(-c3cc(C)on3)n2nc1OCc1ccc(-c2nc(C)no2)cn1` [Embodiment 137, 5-(6-(((7-Methoxy-3-(5-methylisoxazol-3-yl)-[1,2,4]triazolo[4,3-b]pyridazin-6-yl)oxy)methyl)pyridin-3-yl)-3-methyl-1,2,4-oxadiazole], with 47.2%; and `COc1cc2nnc(-c3cc(C)on3)n2nc1OCc1ccc2c(cnn2C)n1` [Embodiment 73], with 34.5%.
Turning to `COCCCOc1cnc(COc2nn3c(-c4cc(C)on4)nnc3cc2OC)cn1` [Embodiment 86], the inhibition at 0.1 µM worked out at 41.8%.
Then `COc1cc2nnc(-c3cc(C)on3)n2nc1OCc1ccc(OCCCC#N)cn1` [Embodiment 8], with 57.8%.
Then `COc1cc2nnc(-c3cc(C)on3)n2nc1OCc1ccc2ccn(C)c2n1` [Embodiment 94], with 32.9%; and `COc1cc2nnc(-c3cc(C)on3)n2nc1OCc1ccc2c(n1)CCN(C(=O)N(C)CC(F)(F)F)C2` [Embodiment 204], with 49.7%.
Regarding `COc1cc2nnc(-c3cc(C)on3)n2nc1OCc1ccccc1C#N` [Embodiment 5], the inhibition at 0.1 µM came to 31.5%.
Then `COc1cc2nnc(-c3cc(C)on3)n2nc1OCc1cccc(C2(F)CNC2)n1` [Embodiment 70], with 31.7%.
Then `COc1cc2nnc(-c3cc(C)on3)n2nc1OCc1cccc2cnnn12` [Embodiment 104], with 48.2%; and `COc1cc2nnc(-c3cc(C)on3)n2nc1OCc1ccc2nn(C(C)C)cc2n1` [Embodiment 235], with 43.5%.
Consider `CCn1nc(C)c2nc(COc3nn4c(-c5cc(C)on5)nnc4cc3OC)ccc21` [Embodiment 243], for which the inhibition at 0.1 µM stood at 50.5%.
Then `CCN1Cc2nc(COc3nn4c(-c5cc(C)on5)nnc4cc3OC)ccc2C1=O` [Embodiment 67], with 58%; and `COc1cc2nnc(-c3cc(C)on3)n2nc1OCc1ncccc1C#N` [Embodiment 30], with 29.4%; and `COc1cc2nnc(-c3cc(C)on3)n2nc1OCc1ccc2c(cnn2Cc2cc(C)on2)n1` [Embodiment 224], with 46.7%.
Then `COc1cc2nnc(-c3cc(C)on3)n2nc1OCc1ccc(C2CCNCC2)cn1` [Embodiment 116], with 44.9%; and `COc1cc2nnc(-c3cc(C)on3)n2nc1OCc1ccc2c(n1)N(C)CCO2` [Embodiment 149], with 71.7%.
Consider `COc1cc2nnc(-c3cc(C)on3)n2nc1OCc1ccc2c(cnn2C2COC2)n1` [Embodiment 227], for which the inhibition at 0.1 µM was found to be 61.5%.
For `COc1cc2nnc(-c3cc(C)on3)n2nc1OCc1ccc(OCC2CCCO2)nn1` (stereo not shown) [Embodiment 165], the inhibition at 0.1 µM is 49.8%.
Then `COc1nccc(COc2nn3c(-c4cc(C)on4)nnc3cc2OC)n1` [Embodiment 72], with 54.3%; and `COc1cc2nnc(-c3cc(C)on3)n2nc1OCc1cccc2ccnn12` [Embodiment 117], with 32.3%; and `COCC(C)Oc1ccc(COc2nn3c(-c4cc(C)on4)nnc3cc2OC)nn1` (stereo not shown) [Embodiment 161], with 53.1%.
As for `COc1cc2nnc(-c3cc(C)on3)n2nc1OCc1ccc2c(n1)c(C)nn2C1COC1` [Embodiment 242], the inhibition at 0.1 µM turned out to be 54.7%.
Then `COc1cc2nnc(-c3cc(C)on3)n2nc1OCc1ccc2nn(C3COC3)c(C)c2n1` [Embodiment 258], with 54.7%.
Then `COc1cc2nnc(-c3cc(C)on3)n2nc1OCc1cccc(F)n1` [Embodiment 4], with 40.8%; and `COc1cc2nnc(-c3cc(C)on3)n2nc1OCc1ccc2c(n1)CCN(CC(F)(F)F)C2` [Embodiment 77], with 44.8%.
Then `COc1cc2nnc(-c3cc(C)on3)n2nc1OCc1ccc2ncn(C3CCOC3)c2n1` (stereo not shown) [Embodiment 246], with 46.6%; and `COc1cc2nnc(-c3cc(C)on3)n2nc1OCc1ncccc1Cl` [Embodiment 17], with 47.7%; and `CCOc1nccc2nc(COc3nn4c(-c5cc(C)on5)nnc4cc3OC)ccc12` [Embodiment 145], with 51.3%.
Turning to `COc1cccc(COc2nn3c(-c4cc(C)on4)nnc3cc2OC)n1` [Embodiment 38], the inhibition at 0.1 µM was determined as 32%.
Then `COc1cc2nnc(-c3cc(C)on3)n2nc1OCc1ccc2c(=O)n(C3COC3)ccc2n1` [Embodiment 144], with 42%; and `Cc1cc(-c2nnc3cc(OC(F)F)c(OCc4ccccn4)nn23)no1` [Embodiment 54], with 43.5%.
As for `COCCNc1ccc(COc2nn3c(-c4cc(C)on4)nnc3cc2OC)nn1` [Embodiment 159], the inhibition at 0.1 µM stood at 50.4%.
In the case of `Cc1cc(-c2nnc3cc(OCC4CC4)c(OCc4ccccn4)nn23)no1` [Embodiment 14], the inhibition at 0.1 µM came out at 19.4%.
For the compound `CCNC(=O)c1ccc(COc2nn3c(-c4cc(C)on4)nnc3cc2OC)nc1` [Embodiment 35], the inhibition at 0.1 µM came to 39.3%.
As to `COc1cc2nnc(-c3cc(C)on3)n2nc1OCc1ccc(C)cn1` [Embodiment 42], the inhibition at 0.1 µM is 44.9%.
For `CCn1nc2ccc(COc3nn4c(-c5cc(C)on5)nnc4cc3OC)nc2c1C` [Embodiment 244], the inhibition at 0.1 µM worked out at 75.1%.
